Reference: patent publication US20110245288A1 (priority 2010, published 2011)

Legend:
[1] = human
[2] = human; remark: listed apart in the source

Q: With `CCOCCOCCOCCOC(=O)Oc1ccc2c3c1O[C@H]1[C@@]4(OC)CC[C@@]5(C[C@@H]4[C@](C)(O)C(C)(C)C)[C@@H](C2)N(CC2CC2)CC[C@]315` [Formula III, Buprenorphine 3,6,9-trioxaundecyl carbonate] as the compound, how does the Cumulative permeation [1] read?
A: Its Cumulative permeation is 23.9 ± 6.7 nmol.

Q: What about the Flux [1] of the same compound?
A: The Flux was 1.74 ± 0.45 nmol/cm^2/h.

Q: What about the Lag time [1] of the same compound?
A: The Lag time was 8.7 ± 0.6 h.

Q: And the “Skin Disposition” value [1]?
A: The value was 13.89 ± 12.21 µmol/g.

Q: What about the flux enhancement [1] of the same compound?
A: The flux enhancement was “*FormuIa III (4) (key: *Indicates a flux enhancement greater than 2.)”.

Q: What about the “fold increase in cumulative permeation as compared to BUP” value [1] of the same compound?
A: Its value is ≥ 2.75 fold.

Q: And the “Plasma hydrolysis (k)” value [2]?
A: Its value is -0.37 h⁻¹.

Q: With `CO[C@]12CC[C@@]3(C[C@@H]1[C@](C)(O)C(C)(C)C)[C@H]1Cc4ccc(O)c5c4[C@@]3(CCN1CC1CC1)[C@H]2O5` [BUP, buprenorphine, reference compound] as the compound, how does the Cumulative permeation [1] read?
A: The Cumulative permeation was 6.32 ± 2.16 nmol.

Q: And the Flux [1]?
A: The Flux was 0.44 ± 0.14 nmol/cm^2/h.

Q: And the Lag time [1]?
A: The Lag time was 9.2 ± 2.0 h.

Q: What about the “Skin Disposition” value [1] of the same compound?
A: Its value is 0.62 ± 0.34 µmol/g.

Q: With `CCOCCOCCOCCOCCOC(=O)Oc1ccc2c3c1O[C@H]1[C@@]4(OC)CC[C@@]5(C[C@@H]4[C@](C)(O)C(C)(C)C)[C@@H](C2)N(CC2CC2)CC[C@]315` [Formula II, Buprenorphine 3,6,9,12-tetraoxatetradecanyl carbonate] as the compound, how does the Cumulative permeation [1] read?
A: The Cumulative permeation was 4.5 ± 1.9 nmol.

Q: What about the Flux [1] of the same compound?
A: The Flux was 0.31 ± 0.26 nmol/cm^2/h.

Q: And the Lag time [1]?
A: Its Lag time is 7.4 ± 4.7 h.

Q: And the “Skin Disposition” value [1]?
A: Its value is 4.5 ± 1.9 µmol/g.

Q: And the “Plasma hydrolysis (k)” value [2]?
A: The value was -1.12 h⁻¹.

Q: Which Cumulative permeation [1] does the source give for `CCOCCOCCOC(=O)Oc1ccc2c3c1O[C@H]1[C@@]4(OC)CC[C@@]5(C[C@@H]4[C@](C)(O)C(C)(C)C)[C@@H](C2)N(CC2CC2)CC[C@]315` [Formula I, Buprenorphine 3,6-dioxaoctyl carbonate] here?
A: Its Cumulative permeation is 17.5 ± 4.0 nmol.

Q: And the Flux [1]?
A: The Flux was 1.24 ± 0.23 nmol/cm^2/h.

Q: What about the Lag time [1] of the same compound?
A: The Lag time was 7.7 ± 1.7 h.

Q: What about the “Skin Disposition” value [1] of the same compound?
A: The value was 1.0 ± 0.4 µmol/g.

Q: What about the flux enhancement [1] of the same compound?
A: The flux enhancement was “*Formula I (3) (key: *Indicates a flux enhancement greater than 2.)”.

Q: What about the “fold increase in cumulative permeation as compared to BUP” value [1] of the same compound?
A: The value was ≥ 2.75 fold.

Q: And the “Plasma hydrolysis (k)” value [2]?
A: Its value is -0.113 h⁻¹.
